Measurements taken from ChEMBL document CHEMBL1130329, “Coumarin-based inhibitors of HIV integrase” (J Med Chem, 1997).
Several values for one entry are separate records, joined by “and”; a condition that tells them apart may be missing. Identical values can stand only once.

Key:
[1] = target: T1, Human immunodeficiency virus type 1 integrase (Human immunodeficiency virus 1, UniProt Q7ZJM1); assay: (§1) Inhibitory activity against 3'-processing of DNA by HIV-1 integrase; assay type: functional
[2] = target: T1, Human immunodeficiency virus type 1 integrase; assay: Integration of DNA by HIV -1 integrase
[3] = Delta Logarithm of Partition Coefficient value was determined.; details: octanol/water
[4] = target: T1, Human immunodeficiency virus type 1 integrase; assay: Inhibitory activity against 3'-processing of DNA byHIV-1 integrase; assay type: functional
[5] = target: T1, Human immunodeficiency virus type 1 integrase; assay: as §1

T1 sequence (Q7ZJM1 whole entry): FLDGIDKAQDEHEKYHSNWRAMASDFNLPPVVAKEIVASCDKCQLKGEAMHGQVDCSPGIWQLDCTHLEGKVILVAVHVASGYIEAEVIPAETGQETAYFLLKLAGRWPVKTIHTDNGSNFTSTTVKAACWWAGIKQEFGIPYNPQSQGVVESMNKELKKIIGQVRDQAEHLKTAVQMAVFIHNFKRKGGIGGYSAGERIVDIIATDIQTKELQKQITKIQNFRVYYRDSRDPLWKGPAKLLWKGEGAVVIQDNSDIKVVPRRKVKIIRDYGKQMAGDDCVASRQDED

| Molecule | IC50 [1] | IC50 [2] | delta Log P [3] | IC50 [4] [µM] | IC50 [5] [µM] |
| --- | --- | --- | --- | --- | --- |
| O=c1oc2ccccc2c(O)c1C1c2c(c3ccccc3oc2=O)Oc2c1c(=O)oc1ccccc21 | 35.7 µM | 22.5 µM |  |  |  |
| 3,3'-(Ferrocenomethylene)bis[4-hydroxycoumarin] | 11 µM and 3.6 µM | 7 µM and 5 µM |  |  |  |
| O=c1c(C(c2ccccc2)c2c(O)oc3ccccc3c2=O)c(O)oc2ccccc12 | 43.4 µM and 43 µM | 38.8 µM | 1.6 |  |  |
| O=c1c(C(c2ccc(C(c3c(O)oc4cc(O)ccc4c3=O)c3c(O)oc4cc(O)ccc4c3=O)cc2)c2c(O)oc3cc(O)ccc3c2=O)c(O)oc2cc(O)ccc12 | 0.37 µM | 0.33 µM |  |  |  |
| CN(C)c1ccc(C(c2c(O)oc3ccccc3c2=O)c2c(O)oc3ccccc3c2=O)cc1 | 100 µM and 190 µM | 50 µM and 88 µM | 1.88 | 88 |  |
| O=c1cc(O)c2ccc(O)cc2o1 | 300 µM | 325 µM |  |  |  |
| O=c1c(Cc2c(O)oc3cc(O)ccc3c2=O)c(O)oc2cc(O)ccc12 | 46.3 µM | 44.9 µM |  |  |  |
| O=c1oc2ccccc2c(O)c1C1c2ccccc2Oc2c1c(=O)oc1ccccc21 (centres undefined) | 121 µM and 127 µM | 122 µM and 163 µM |  |  |  |
| O=c1c(C(c2cc(OCc3ccccc3)cc(OCc3ccccc3)c2)c2c(O)oc3ccccc3c2=O)c(O)oc2ccccc12 | 8 µM and 11 µM and 10 µM | 12 µM and 3.7 µM | 5.15 |  |  |
| O=c1c(C(c2ccc3c(c2)Cc2ccccc2-3)c2c(O)oc3ccccc3c2=O)c(O)oc2ccccc12 | 10 µM (2×) and 11 µM | 9.5 µM and 7.8 µM | 3.4 |  |  |
| COc1cc(C(c2c(O)c3ccccc3oc2=O)c2c(O)c3ccccc3oc2=O)ccc1O | 198 µM and 177 µM and 190 µM | 76 µM and 108 µM | 1.05 |  |  |
| O=c1c(C(c2cccc(C(c3c(O)oc4ccccc4c3=O)c3c(O)oc4ccccc4c3=O)c2)c2c(O)oc3ccccc3c2=O)c(O)oc2ccccc12 | 3 µM and 2.9 µM | 1.2 µM and 2 µM |  |  |  |
| O=c1c(Cc2ccc(Cc3c(O)oc4ccccc4c3=O)cc2)c(O)oc2ccccc12 | 80.6 µM | 69.2 µM |  |  |  |
| O=c1c(Cc2ccccc2Cc2c(O)oc3ccccc3c2=O)c(O)oc2ccccc12 | 46 µM and 45 µM | 20.5 µM and 33.2 µM |  |  |  |
| O=c1c(C(c2ccc3ccccc3c2)c2c(O)oc3ccccc3c2=O)c(O)oc2ccccc12 | 19 µM and 20 µM (2×) | 16 µM and 9 µM | 2.6 |  |  |
| O=c1c(C(c2ccc(OCc3ccccc3)cc2)c2c(O)oc3ccccc3c2=O)c(O)oc2ccccc12 | 19 µM and 8.5 µM and 20 µM | 14 µM and 24 µM | 3.06 |  |  |
| O=c1c(C(c2ccccn2)c2c(O)oc3cc(O)ccc3c2=O)c(O)oc2cc(O)ccc12 | 94 µM and 84 µM | 49 µM and 70 µM |  |  | 81 |

| Molecule | IC50 [1] | IC50 [2] | delta Log P [3] | IC50 [4] [µM] | IC50 [5] [µM] |
| --- | --- | --- | --- | --- | --- |
| O=c1c(C(c2ccc(C(c3c(O)oc4ccccc4c3=O)c3c(O)oc4ccccc4c3=O)cc2)c2c(O)oc3ccccc3c2=O)c(O)oc2ccccc12 | 2 µM |  | 2.84 |  |  |
| O=c1c(C(c2cnc3ccccc3c2)c2c(O)oc3ccccc3c2=O)c(O)oc2ccccc12 | 40 µM and 29 µM and 35 µM | 23 µM and 14 µM | 1.6 |  |  |
| O=c1c(C(c2ccccc2)c2c(O)oc3cc(O)ccc3c2=O)c(O)oc2cc(O)ccc12 | 17.2 µM | 22.2 µM |  |  |  |
| O=C(O)c1ccc(C(c2c(O)oc3ccccc3c2=O)c2c(O)oc3ccccc3c2=O)cc1 | 66 µM and 48 µM | 54 µM and 49 µM |  |  |  |
| O=c1c(C(c2ccc(/C=C/c3ccccc3)cc2)c2c(O)oc3ccccc3c2=O)c(O)oc2ccccc12 | 5.5 µM and 9.2 µM and 7 µM | 3.7 µM and 9.5 µM | 4.14 |  |  |
| O=c1c(C(c2ccc(O)cc2)c2c(O)oc3ccccc3c2=O)c(O)oc2ccccc12 | 141 µM and 128 µM and 130 µM | 75 µM and 74 µM | 1.1 |  |  |
| O=c1c(C(c2ccc(-c3ccccc3)cc2)c2c(O)oc3ccccc3c2=O)c(O)oc2ccccc12 | 14 µM and 16 µM and 15 µM | 13 µM and 28 µM | 3.33 |  |  |
| O=c1c(C(c2cccnc2)c2c(O)oc3cc(O)ccc3c2=O)c(O)oc2cc(O)ccc12 | 62 µM and 116 µM | 25 µM and 97 µM |  |  | 89 |
| O=c1c(C(c2ccc(/C=C/c3ccccc3)cc2)c2c(O)oc3cc(O)ccc3c2=O)c(O)oc2cc(O)ccc12 |  | 1.8 µM |  |  |  |
| O=c1c(C(c2ccc([N+](=O)[O-])cc2)c2c(O)oc3ccccc3c2=O)c(O)oc2ccccc12 | 58 µM and 54 µM | 12 µM and 24 µM | 1.37 | 50 |  |
| O=c1c(C(c2cccs2)c2c(O)oc3ccccc3c2=O)c(O)oc2ccccc12 | 100 µM and 105 µM | 148 µM and 149 µM | 0.86 | 110 |  |
| O=c1cc(O)c2ccccc2o1 [4-HYDROXYCOUMARINS] | > 100 µM | > 100 µM |  |  |  |
| O=c1c(Cc2cccc(Cc3c(O)oc4ccccc4c3=O)c2)c(O)oc2ccccc12 | 34 µM and 40 µM | 11.1 µM and 27.5 µM |  |  |  |
| O=c1oc2ccccc2c(O)c1Cc1c(O)c2ccccc2oc1=O [DICUMAROL] | > 300 µM | > 100 µM |  |  |  |
| O=c1c(C(c2ccco2)c2c(O)oc3ccccc3c2=O)c(O)oc2ccccc12 | 75 µM and 34 µM and 54 µM | 133 µM and 122 µM | 0.45 |  |  |
| O=c1c(C(c2ccc3ccccc3c2)c2c(O)oc3cc(O)ccc3c2=O)c(O)oc2cc(O)ccc12 | 4.2 µM | 3.55 µM |  |  |  |
